# From patent publication US8153424B2, “Method of in vitro differentiation of neural stem cells, motor neurons and dopamine neurons from primate embryonic stem cells” (Wisconsin Alumni Research Foundation, priority 2001, dated 2012)
# How the values were obtained:
# Type in all cases: cell-based, human
# [1] = test system: voltage-gated sodium channels
# [2] = test system: voltage-activated sodium channels
# [3] = test system: hESC-derived EBs (H9 and H9.2 lines); assay: Formation of neural tube-like structures from embryoid bodies in the presence of FGF2; details: total 350 EBs from H9 and H9.2 lines, 3 separate experiments
# Experimental: Differentiation cultures of ESCs. ESC cultures were incubated with dispase (Gibco BRL, 0.1 mg/ml) at 37° C. for 30 minutes, which removed ESC colonies intact. The ES cell colonies were pelleted, resuspended in ESC medium without FGF2, and cultured for four days in a 25-cm^2 tissue culture flask (Nunc) with a daily medium change. ESC colonies grew as floating EBs whereas any remaining feeder cells adhered to the flask. The feeder cells were removed by transferring the EBs into a new flask. EBs (˜50/flask) were then plated in a 25-cm^2 tissue culture flask (Nunc) in DMEM/F12, supplemented with insulin (25 μg/ml), transferrin (100 μg/ml), progesterone (20 nM), putrescine (60 μM), sodium selenite (30 nM), and heparin (2 μg/ml) in the presence of FGF2 (20 ng/ml) (Zhang et al., supra, 2000; Zhang et al., supra, 1999).
# [4] = test system: hESC-derived neural precursors; assay: BrdU incorporation by dissociated ES cell-derived neural precursors; details: FGF2 20 ng/ml, EGF 20 ng/ml, LIF 5 ng/ml; each alone
# Experimental: Histochemical and immunohistochemical staining. To better visualize the rosette formations, cultures with rosettes were rinsed with PBS and fixed in 4% paraformaldehyde and 0.25% glutaraldehyde for 1 hour. The fixed cells were then processed for embedding in plastic resin as described (Zhang et al., supra, 1999). The cultured cells were then sectioned in 1-μm thickness and stained with toluidine blue. For immunostaining, the coverslip cultures were immunostained with the following primary antibodies detected by appropriate fluorescent secondary antibodies detailed elsewhere (Zhang et al., supra, 2000; Zhang et al., supra, 1999): anti-nestin (polyclonal, gift of Dr. R. McKay of NINDS, 1:1,000); anti-polysialylated neuronal cell adhesion molecule (PSA-NCAM, mouse IgM, gift of Dr. G. Rougon of University of Marseille, France, 1:200); anti-Musashi-1 (rat IgG, gift of Dr. H. Okano, University of Tokyo, Japan, 1:500); anti-GFAP (polyclonal, Dako, 1:1,000); anti-human GFAP (Sternberg monoclonals, 1:10,000); O4 (mouse IgM, hybridoma supernatant, 1:50); anti-tyrosine hydroxylase (TH, Pel Freez, 1:500). The remaining antibodies were from Sigma: anti-βIII-tubulin (mouse IgG, 1:500); anti-neurofilament (NF) 68 (mouse IgG, 1:1,000); anti-NF 200 (polyclonal, 1:5,000); anti-MAP2ab (mouse IgG, 1:250); anti-γ-aminobutyric acid (GABA, polyclonal, 1:10,000); anti-glutamate (mouse IgG, 1:10,000). For bromodeoxyuridine (BrdU) incorporation, 4 coverslip cultures in each group were incubated with 2 μM of BrdU for sixteen hours before the cultures were fixed in 4% paraformaldehyde, denatured with 1N HCl and processed for immunolabeling and cell counting (Zhang et al., supra, 2000; Zhang et al., supra, 1999).
# [5] = test system: early rosette cells (Pax6+/Sox1-); assay: RT-PCR of rostrocaudal genes in early rosette cells; details: RA 0.001-1.0 μM or FGF2 20 ng/ml for seven days; dose-dependent
# Experimental: RT-PCR amplifications were performed from hESC-derived neuroectodermal cells at different stages and motor neuron differentiation cultures. The following primers were used: […] ID NO:11), [NT] ID NO:12), 318 bp; […] ID NO:13), [NT] ID NO:14), 290 bp; […] ID NO:15), [NT] ID NO:16), 340 bp; […] ID NO:17), [NT] ID NO:18), 429 bp; HoxBl, [NT] ID NO:19), [NT] ID NO:20), 218 bp; GAPDH, [NT] ID NO:1), [NT] ID NO:2), 450 bpi Olig-2, [NT] ID NO:21), [NT] ID NO:22), 315 bp; […] ID NO:23), [NT] ID NO:24), 337 bp; […] ID NO:25), [NT] ID NO:26), 473 bp; […] ID NO:27), [NT] ID NO:28), 459 bp; SHH, [NT] ID NO:29), [NT] ID NO:30), 339 bp; […] ID NO:31), [NT] ID NO:32), 335 bp.
molecule,measurement,setting,value
"NC1=N[C@H](O)[C@H]2[C@H]3O[C@]4(O)O[C@@H]([C@@H](O)[C@@]2(N1)[C@@H]4O)[C@]3(O)CO [TTX, tetrodotoxin]",Effect on inward currents,[1],completely blocked
same,Effect on inward currents and action potentials,[2],blocked
FGF2: growth factor FGF2 (Peprotech; R & D Systems),EBs forming neural tube-like structures,[3],94%
same,BrdU incorporation (stimulation of precursor cell proliferation),[4],elevated
same,"Expression of Otx2 and Hox genes (Hox B1, B6, C5, C8)",[5],decreased expression of Otx2 and increased expression of Hox genes
